From patent US10988477B2 (Merck Patent GmbH, priority 2018, dated 2021)

Columns and labels:
[1] = target: intracellular GCN2 (phosphorylation of the GCN2 substrate eIF2α) (Homo sapiens, UniProt Q9P2K8); test: GCN2 cellular inhibition assay (AlphaScreen SureFire P-eIF2α Ser51, borrelidin-treated U2OS cells); format: cell-based; settings: biomarker assay, phosphorylated eIF2α Ser51 in borrelidin-treated U2OS cells
Method in brief: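 U2OS, overnight attach; cpd 4-fold serial dil. from 40 μM final; borrelidin 10 μM, 1 h 37 °C/5% CO2; lyse; AlphaScreen P-eIF2α Ser51 (acceptor 2 h, donor overnight, RT, dark); % inhib. vs borrelidin-only.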

[2] = target: GCN2 kinase (Homo sapiens, UniProt Q9P2K8); test: GCN2 enzyme inhibition assay (Transcreener ADP2 fluorescence polarization); format: biochemical; settings: 280 μM ATP
GCN2 kinase, sequence (Q9P2K8 whole entry): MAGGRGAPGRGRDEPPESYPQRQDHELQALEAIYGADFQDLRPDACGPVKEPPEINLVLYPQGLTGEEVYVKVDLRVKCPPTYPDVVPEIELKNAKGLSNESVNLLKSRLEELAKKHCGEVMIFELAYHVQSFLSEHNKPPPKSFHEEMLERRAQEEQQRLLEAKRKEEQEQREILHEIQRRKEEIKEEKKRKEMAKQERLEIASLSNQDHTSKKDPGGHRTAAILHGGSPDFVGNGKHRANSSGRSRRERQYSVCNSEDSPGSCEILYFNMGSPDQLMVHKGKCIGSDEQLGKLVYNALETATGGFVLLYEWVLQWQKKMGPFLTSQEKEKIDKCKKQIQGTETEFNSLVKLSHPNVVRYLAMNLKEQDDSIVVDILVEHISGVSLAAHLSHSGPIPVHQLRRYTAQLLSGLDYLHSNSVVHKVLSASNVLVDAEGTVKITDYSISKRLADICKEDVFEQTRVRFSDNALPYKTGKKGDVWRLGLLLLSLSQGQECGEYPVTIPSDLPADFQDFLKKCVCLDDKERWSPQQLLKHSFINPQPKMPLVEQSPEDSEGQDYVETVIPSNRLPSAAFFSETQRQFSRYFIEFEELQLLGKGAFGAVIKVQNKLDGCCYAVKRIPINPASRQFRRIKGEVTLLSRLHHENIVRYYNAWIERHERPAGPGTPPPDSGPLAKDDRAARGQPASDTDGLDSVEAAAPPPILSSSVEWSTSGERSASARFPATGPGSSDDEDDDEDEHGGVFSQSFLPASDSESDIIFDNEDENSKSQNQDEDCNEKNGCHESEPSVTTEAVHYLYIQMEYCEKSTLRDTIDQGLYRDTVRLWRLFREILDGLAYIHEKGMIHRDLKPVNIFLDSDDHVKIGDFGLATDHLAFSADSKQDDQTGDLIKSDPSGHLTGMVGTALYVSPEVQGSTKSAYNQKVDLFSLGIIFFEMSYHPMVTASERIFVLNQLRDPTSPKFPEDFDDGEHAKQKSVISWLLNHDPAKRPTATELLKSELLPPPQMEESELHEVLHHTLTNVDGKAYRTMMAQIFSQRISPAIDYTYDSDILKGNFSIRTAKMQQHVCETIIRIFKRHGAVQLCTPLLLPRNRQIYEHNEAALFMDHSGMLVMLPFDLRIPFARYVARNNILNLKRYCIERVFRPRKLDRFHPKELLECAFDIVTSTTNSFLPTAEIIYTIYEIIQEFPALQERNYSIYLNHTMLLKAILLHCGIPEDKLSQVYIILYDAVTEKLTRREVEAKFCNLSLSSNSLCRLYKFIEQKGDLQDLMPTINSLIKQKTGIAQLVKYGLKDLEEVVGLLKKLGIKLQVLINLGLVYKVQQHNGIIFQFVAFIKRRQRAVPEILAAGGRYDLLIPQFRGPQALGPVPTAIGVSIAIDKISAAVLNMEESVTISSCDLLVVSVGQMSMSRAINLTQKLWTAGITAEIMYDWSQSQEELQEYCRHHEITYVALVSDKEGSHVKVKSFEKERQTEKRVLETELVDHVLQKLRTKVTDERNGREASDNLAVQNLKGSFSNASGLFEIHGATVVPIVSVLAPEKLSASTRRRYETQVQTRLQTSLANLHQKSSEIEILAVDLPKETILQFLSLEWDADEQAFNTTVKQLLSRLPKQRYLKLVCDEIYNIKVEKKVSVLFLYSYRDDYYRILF
Method in brief: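 FP detection of ADP (antibody plus Alexa633 tracer) after a 1 h, 25 °C kinase reaction. Enzyme 4 nM, ATP 280 μM, (RS)7 peptide 200 μM, Tris pH 7.5 buffer with MgCl2 and DTT. Percent inhibition fitted by non-linear tight-binding algorithm for IC50 and Ki(app).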

[3] = compounds of Formula II, 4 nM GCN2 kinase
[4] = Enzyme activity for compounds of Formula IV, Ki(app), 25° C.

intracellular GCN2 (phosphorylation of the GCN2 substrate eIF2α), sequence (Q9P2K8 whole entry): as above

IC50 ([1]; compounds of Formula II)	Ki [2, 3]	IC50 ([1]; compounds of Formula IV)	Ki [2, 4]	SMILES
0.5 to 5 µM	< 10 nM	–	–	CS(=O)(=O)NCC1CN(c2cc(-c3cnc4ccc(C(F)F)nn34)ncn2)CCC1(F)F (single isomer, unassigned) [II-2, N-((1-(6-(6-(Difluoromethyl)imidazo[1,2-b]pyridazin-3-yl)pyrimidin-4-yl)-4,4-difluoropiperidin-3-yl)methyl)methanesulfonamide]
–	–	> 5 µM	100 to 1000 nM	Cc1nnc([C@@H]2CN(c3ccnc(-c4cnc5cnc(C(F)(F)F)cn45)n3)C[C@H](C)O2)o1 [IV-716]
0.5 to 5 µM	< 10 nM	–	–	CS(=O)(=O)NCC1CCCN(c2cc(-c3cnc4ccc(C(F)F)nn34)cc(N3CCNCC3)n2)C1 (stereo not drawn) [II-96, N-((1-(4-(6-(Difluoromethyl)imidazo[1,2-b]pyridazin-3-yl)-6-(piperazin-1-yl)pyridin-2-yl)piperidin-3-yl)methyl)methanesulfonamide]
–	–	0.5 to 5 µM	10 to 100 nM	Cc1nc(C2CCCN(c3ccnc(-c4cnc5cnc(Br)cn45)n3)C2)c[nH]1 (single isomer, unassigned) [IV-374, 6-Bromo-3-(4-(3-(2-methyl-1H-imidazol-4-yl)piperidin-1-yl)pyrimidin-2-yl)imidazo[1,2-a]pyrazine]
< 0.5 µM	< 10 nM	–	–	NC(=O)[C@H]1CCCN(c2cc(-c3cnc4ccc(C(F)F)nn34)ccn2)C1 [II-143, (S′)-1-(4-(6-(Difluoromethyl)imidazo[1,2-b]pyridazin-3-yl)pyridin-2-yl)piperidine-3-carboxamide]
0.5 to 5 µM	10 to 1000 nM	–	–	C[S+]([O-])CC1CCCN(c2cc(-c3cnc4ccc(C(F)F)nn34)ccn2)C1 (stereo not drawn) [II-151, 6-(Difluoromethyl)-3-(2-(3-((methylsulfinyl)methyl)piperidin-1-yl)pyridin-4-yl)imidazo[1,2-b]pyridazine]
–	–	> 5 µM	100 to 1000 nM	CC1CC(CS(C)(=N)=O)C(C)N(c2ccnc(-c3cnc4cnc(C(F)F)cn34)n2)C1 (single isomer, unassigned) [IV-366, ((1-(2-(6-(Difluoromethyl)imidazo[1,2-a]pyrazin-3-yl)pyrimidin-4-yl)-2,5-dimethylpiperidin-3-yl)methyl)(imino)(methyl)-λ^6-sulfanone]
0.5 to 5 µM	10 to 1000 nM	–	–	CC1C(CNS(C)(=O)=O)C(F)(F)CCN1c1cc(-c2cnc3ccc(C(F)F)nn23)ncn1 (single isomer, unassigned) [II-303, N-((1-(6-(6-(Difluoromethyl)imidazo[1,2-b]pyridazin-3-yl)pyrimidin-4-yl)-4,4-difluoro-2-methylpiperidin-3-yl)methyl)methanesulfonamide]
0.5 to 5 µM	10 to 1000 nM	–	–	CS(=O)(=O)NCC1CCCN(c2cc(-c3cnc4ccc(C(F)F)nn34)ccc2C#N)C1 (stereo not drawn) [II-82, N-((1-(2-Cyano-5-(6-(difluoromethyl)imidazo[1,2-b]pyridazin-3-yl)phenyl)piperidin-3-yl)methyl)methanesulfonamide]
> 5 µM	10 to 1000 nM	–	–	CC(=O)N1CCN(c2cc(-c3cnc4ccc(C)nn34)ccn2)CC1 [II-193, 1-(4-(4-(6-Methylimidazo[1,2-b]pyridazin-3-yl)pyridin-2-yl)piperazin-1-yl)ethanone]
> 5 µM	10 to 1000 nM	–	–	O=C1CCN(c2cc(-c3cnc4ccc(C(F)F)nn34)ncn2)CCN1 [II-15, 1-(6-(6-(Difluoromethyl)imidazo[1,2-b]pyridazin-3-yl)pyrimidin-4-yl)-1,4-diazepan-5-one]
< 0.5 µM	< 10 nM	–	–	CC1CN(c2cc(-c3cnc4ccc(C(F)F)nn34)ccn2)CC(CNS(C)(=O)=O)O1 (stereo not drawn) [II-119, N-((4-(4-(6-(Difluoromethyl)imidazo[1,2-b]pyridazin-3-yl)pyridin-2-yl)-6-methylmorpholin-2-yl)methyl)methanesulfonamide]
–	–	> 5 µM	100 to 1000 nM	CC1C(C(N)=O)CCN1c1ccnc(-c2cnc3cnc(C(F)(F)F)cn23)n1 (single isomer, unassigned) [IV-614, 2-Methyl-1-(2-(6-(trifluoromethyl)imidazo[1,2-a]pyrazin-3-yl)pyrimidin-4-yl)pyrrolidine-3-carboxamide]
–	–	> 5 µM	100 to 1000 nM	CC1CN(c2nccc(-c3cnc4cnc(C(F)F)cn34)n2)CC(CNS(C)(=O)=O)C1(F)F (stereo not drawn) [IV-46, N-((1-(4-(6-(Difluoromethyl)imidazo[1,2-a]pyrazin-3-yl)pyrimidin-2-yl)-4,4-difluoro-5-methylpiperidin-3-yl)methyl)methanesulfonamide]
–	–	> 5 µM	100 to 1000 nM	CCn1cc(-c2ccnc(-c3cnc4cnc(C(F)F)cn34)n2)cn1 [IV-154, 6-(Difluoromethyl)-3-(4-(1-ethyl-1H-pyrazol-4-yl)pyrimidin-2-yl)imidazo[1,2-a]pyrazine]
> 5 µM	10 to 1000 nM	–	–	CS(=O)(=O)C1CCCN(c2cc(-c3cnc4ccc(C(F)(F)F)nn34)ccn2)C1 (stereo not drawn) [II-228, 3-(2-(3-(Methylsulfonyl)piperidin-1-yl)pyridin-4-yl)-6-(trifluoromethyl)imidazo[1,2-b]pyridazine]
–	–	< 0.5 µM	< 10 nM	CC1CN(c2ccnc(-c3cnc4cnc(Cl)cn34)n2)CC(c2cn[nH]c2)O1 (single isomer, unassigned) [IV-217, 4-(2-(6-Chloroimidazo[1,2-a]pyrazin-3-yl)pyrimidin-4-yl)-2-methyl-6-(1H-pyrazol-4-yl)morpholine]
–	–	> 5 µM	100 to 1000 nM	C[C@H]1CCCN(c2ccnc(-c3cnc4cnc(C(F)F)cn34)n2)C1 [IV-137, (S)-6-(Difluoromethyl)-3-(4-(3-methylpiperidin-1-yl)pyrimidin-2-yl)imidazo[1,2-a]pyrazine]
> 5 µM	10 to 1000 nM	–	–	NS(=O)(=O)N1CCOC2(CN(c3cc(-c4cnc5ccc(C(F)F)nn45)ncn3)C2)C1 [II-285, 2-(6-(6-(Difluoromethyl)imidazo[1,2-b]pyridazin-3-yl)pyrimidin-4-yl)-5-oxa-2,8-diazaspiro[3.5]nonane-8-sulfonamide]
–	–	< 0.5 µM	< 10 nM	Fc1n[nH]cc1C1CCN(c2ccnc(-c3cnc4cnc(C(F)(F)F)cn34)n2)C1 (single isomer, unassigned) [IV-562, 3-(4-(3-(3-Fluoro-1H-pyrazol-4-yl)pyrrolidin-1-yl)pyrimidin-2-yl)-6-(trifluoromethyl)imidazo[1,2-a]pyrazine]
–	–	> 5 µM	100 to 1000 nM	FC(F)(F)c1cn2c(-c3nccc(N4CCCC(C5CNC5)C4)n3)cnc2cn1 (stereo not drawn) [IV-696, 3-(4-(3-(Azetidin-3-yl)piperidin-1-yl)pyrimidin-2-yl)-6-(trifluoromethyl)imidazo[1,2-a]pyrazine]
–	–	0.5 to 5 µM	10 to 100 nM	CC1CN(c2ccnc(-c3cnc4cnc(Br)cn34)n2)CC(c2cn[nH]c2)N1 (single isomer, unassigned) [IV-364, 6-Bromo-3-(4-(3-methyl-5-(1H-pyrazol-4-yl)piperazin-1-yl)pyrimidin-2-yl)imidazo[1,2-a]pyrazine]
< 0.5 µM	< 10 nM	–	–	CC1CN(c2cc(-c3cnc4ccc(C(F)F)nn34)ncn2)C(C)C(CNS(C)(=O)=O)N1 (stereo not drawn) [II-427, N-((4-(6-(6-(Difluoromethyl)imidazo[1,2-b]pyridazin-3-yl)pyrimidin-4-yl)-3,6-dimethylpiperazin-2-yl)methyl)methanesulfonamide]
> 5 µM	10 to 1000 nM	–	–	CN1CCN(c2cc(-c3cnc4ccc(Cl)nn34)ccn2)CC1 [II-195, 6-Chloro-3-(2-(4-methylpiperazin-1-yl)pyridin-4-yl)imidazo[1,2-b]pyridazine]
> 5 µM	10 to 1000 nM	–	–	CS(=O)(=O)N1CC2OCCN(c3cc(-c4cnc5ccc(C(F)F)nn45)ncn3)C2C1 (stereo not drawn) [II-319, 4-(6-(6-(Difluoromethyl)imidazo[1,2-b]pyridazin-3-yl)pyrimidin-4-yl)-6-(methylsulfonyl)octahydropyrrolo[3,4-b][1,4]oxazine]
0.5 to 5 µM	< 10 nM	–	–	CNc1cc(-c2cnc3ccc(C(F)F)nn23)cc(N2CCC(F)(F)C(CNS(C)(=O)=O)C2)n1 (stereo not drawn) [II-71, N-((1-(4-(6-(Difluoromethyl)imidazo[1,2-b]pyridazin-3-yl)-6-(methylamino)pyridin-2-yl)-4,4-difluoropiperidin-3-yl)methyl)methanesulfonamide]
–	–	> 5 µM	100 to 1000 nM	OCc1ccc(-c2ccnc(-c3cnc4cnc(C(F)F)cn34)n2)s1 [IV-175, (5-(2-(6-(Difluoromethyl)imidazo[1,2-a]pyrazin-3-yl)pyrimidin-4-yl)thiophen-2-yl)methanol]
–	–	> 5 µM	100 to 1000 nM	O=C1OCC2CN(c3ccnc(-c4cnc5cnc(C(F)F)cn45)n3)CCN12 (stereo not drawn) [IV-100, 7-(2-(6-(Difluoromethyl)imidazo[1,2-a]pyrazin-3-yl)pyrimidin-4-yl)hexahydro-3H-oxazolo[3,4-a]pyrazin-3-one]
0.5 to 5 µM	10 to 1000 nM	–	–	CC1C(CNS(C)(=O)=O)OC(C)(C)CN1c1cc(-c2cnc3ccc(C(F)F)nn23)ncn1 (single isomer, unassigned) [II-484, N-((4-(6-(6-(Difluoromethyl)imidazo[1,2-b]pyridazin-3-yl)pyrimidin-4-yl)-3,6,6-trimethylmorpholin-2-yl)methyl)methanesulfonamide]
0.5 to 5 µM	10 to 1000 nM	–	–	FC(F)(F)c1ccc2ncc(-c3cc(N4CCCC(c5c[nH]cn5)C4)ncn3)n2n1 (stereo not drawn) [II-715]
